Consider one cell line from the supplement of paper PMC10307832.

Common to all, as to test: relative viability (nuclei count vs DMSO), 5 days (fraction); higher = more cells survive
Compound in experiment [1]: O=S(=O)(c1ccccc1)N(CC(F)(F)F)c1ccc(C(O)(C(F)(F)F)C(F)(F)F)cc1 + Nc1nc2[nH]cc(CCc3ccc(C(=O)N[C@@H](CCC(=O)O)C(=O)O)cc3)c2c(=O)[nH]1 [Pemetrexed] (partner 0.2 µM)
In outline:
(§1)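 One day after seeding in 1536-well plates, lung cancer cell lines were dosed by pin tool. Dosing was either single-drug or a fixed anchor-drug dose plus five library-drug doses (not always all listed) in √10 steps. After 5 days, nuclei were stained in one fix-and-stain step and counted on 4× images, and relative viability is the nuclei count of treated wells over that of vehicle wells, given as the median of duplicate plates.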

Compound in experiment [2]: O=S(=O)(c1ccccc1)N(CC(F)(F)F)c1ccc(C(O)(C(F)(F)F)C(F)(F)F)cc1 + COc1cccc2cc(-c3nc([C@H]4CC[C@H](C(=O)O)CC4)n4ncnc(N)c34)[nH]c12 [OSI-027] (partner 0.5 µM)
In outline: as §1

Compound in the experiment “RO-3306 + Phenformin”: C1=CC2=C(C=CC(=C2)C=C3C(=O)NC(=NCC4=CC=CS4)S3)N=C1 [RO-3306] + N=C(N)NC(=N)NCCc1ccccc1 [Phenformin] (partner 250 µM)
The gist of the method: as §1

Compound in the experiment “RO-3306 + Pemetrexed”: C1=CC2=C(C=CC(=C2)C=C3C(=O)NC(=NCC4=CC=CS4)S3)N=C1 [RO-3306] + Nc1nc2[nH]cc(CCc3ccc(C(=O)N[C@@H](CCC(=O)O)C(=O)O)cc3)c2c(=O)[nH]1 [Pemetrexed] (partner 0.2 µM)
The gist of the method:
as §1

With UMC-11, the relative viability in experiment [1] (first compound 0.8 µM) was 0.786; in experiment [1] (first compound 2.53 µM), 0.736; in experiment [1] (first compound 8 µM) it was 0.852; in experiment [2] (first compound 0.8 µM) it was 0.491; in experiment [2] (first compound 2.53 µM), 0.444; in experiment [2] (first compound 8 µM), 0.526. Also, the relative viability with RO-3306 + Phenformin (first compound 0.01 µM) amounted to 0.351; in the experiment with RO-3306 + Phenformin (first compound 0.03162 µM), 0.291; with RO-3306 + Phenformin (first compound 0.1 µM), 0.3; with RO-3306 + Phenformin (first compound 0.3162 µM) it was 0.366; with RO-3306 + Phenformin (first compound 1 µM), 0.315; with RO-3306 + Pemetrexed (first compound 0.01 µM), 0.906. The relative viability with RO-3306 + Pemetrexed (first compound 0.03162 µM) was determined as 0.746; with RO-3306 + Pemetrexed (first compound 0.1 µM) it was 0.816; with RO-3306 + Pemetrexed (first compound 0.3162 µM), 0.816; in the experiment with RO-3306 + Pemetrexed (first compound 1 µM) it was 0.791.
